Reference: patent US20120118197A1, “BUILDING MATERIALS RESISTANT TO ROOT PENETRATION AND METHODS FOR MAKING THE SAME” (LANXESS DEUTSCHLAND GMBH, priority 2008, published 2012)

System: Lupinus albus
Assay: Greenhouse root penetration test in bitumen membranes (DIN CEN/TS 14416)
Conditions: for No. of emerged plants average: 35 seeds planted; for No. of roots grew into bitumen average / No. of roots stopped at bitumen average / Plant height average: six weeks; for No. of roots grew thoughout bitumen average: average of 3 replicates
Description: A greenhouse study was carried out to compare the effectiveness of different herbicides to prevent root penetration in bitumen roof sealing membranes without killing the plant or adversely affecting it.
The herbicides were incorporated into bitumen 160/220 (thickness 4.5-6 mm) during a standard bitumen manufacturing process. The manufacturing process comprised a step of heating the bitumen mixture before a fibreglass grid was incorporated as a reinforcement of the bitumen membrane.
The herbicides Napropamide (N,N-Diethyl-2-(1-naphthyloxy)propanamide, CAS No. (S)-(+) isomer: 41643-36-1) and Prodiamine (2,4-dinitro-N3,N3-dipropyl-6-(trifluoromethyl)-1,3-benzenediamine, CAS No. 29091-21-2) were formulated as oil dispersion with 25% active ingredient. The (R)-2-(4-chlorine-o-tolyloxy)propionic acid ethyl-hexylester (trader name: ‘HERBITECT™’, 2 ethylhexyl-2-(R)-2-(4-chloro-o-tolylory)propionate) may be obtained from Büsscher & Hoffman, Fabrikstrasse 2, A-4470 Enns, Austria and was formulated as oil dispersion with approx. 95% active ingredient.
Resistance of the bitumen against root penetration was evaluated according to the standard test method known in the art as: DIN CEN/TS 14416 ‘Geosynthetische Dichtungsbahnen—Prüfverfahren zur Bestimmung des Widerstandes gegen Wurzeln, Deutsche Fassung CEN/TS14416:2005’. Bitumen membranes containing Napropamide and Prodiamine, respectively were evaluated at active ingredient concentrations of 0.5%, 0.25%, 0.125% and 0.0625% based on raw bitumen. […] Bitumen membranes without incorporated herbicide were used as a control. Three discs with a diameter of 25 cm were punched out of each bitumen membrane and used for the study.
Unglazed, earthenware flowerpots approx. 22 cm high were filled with a soil-mixture [soil low in calcium/TKS1 (3:1)] to 10 cm from the bottom of the pot. Bitumen discs were put on top of the soil layer and the gap between the disc and the pot was sealed with aquarium silicone sealant. The diameter of the discs was approximately that of the internal diameter halfway up the pots. The bitumen discs were covered with approximately 9 cm soil and a plastic watering pipe was insert into the soil of each pot. Thirty five lupine seeds (Lupinus albus) were planted in the soil and covered with about 1 cm of soil. Two pots filled only with soil were used as a control for seed germination and plant growth.
The seeds were growing in a greenhouse under artificial light (14 h photoperiod, 20-22° C., relative humidity 60%). The soil above the bitumen disc was watered with rain water led through the plastic pipe into the pots so that the surface of the bitumen was kept damp. The soil beneath the bitumen discs was kept moist by standing from time to time the pots in water-filled trays. After six weeks the soil of the pots was removed from the roots by gentle running water. The bottom side of bitumen membranes was inspected to see whether any roots have grown through the bitumen, and the upper side was examined to assess the number of roots penetrating the bitumen and the depth of penetration. During the assessments, bitumen discs, roots, and above ground parts of the plants were recorded.

[1] = 0.38% active ingredient based on raw bitumen
[2] = 0.0625% active ingredient based on raw bitumen
[3] = 0.0625% active ingredient, replicate 1
[4] = 0.0625% active ingredient, replicate 2
[5] = 0.0625% active ingredient, replicate 3
[6] = 0.125% active ingredient based on raw bitumen
[7] = 0.125% active ingredient, replicate 1
[8] = 0.125% active ingredient, replicate 2
[9] = 0.125% active ingredient, replicate 3
[10] = 0.25% active ingredient based on raw bitumen
[11] = 0.25% active ingredient, replicate 1
[12] = 0.25% active ingredient, replicate 2
[13] = 0.25% active ingredient, replicate 3
[14] = 0.5% active ingredient based on raw bitumen
[15] = 0.5% active ingredient, replicate 1
[16] = 0.5% active ingredient, replicate 2
[17] = 0.5% active ingredient, replicate 3

Structure (SMILES) | No. of roots grew into bitumen average [2] | No. of roots stopped at bitumen average [2] | No. of roots grew thoughout bitumen average (0.0625% active ingredient) | No. of roots grew thoughout bitumen (3 replicates shown) [3] | No. of roots grew thoughout bitumen (3 replicates shown) [4] | No. of roots grew thoughout bitumen (3 replicates shown) [5] | No. of roots grew into bitumen average [6] | No. of roots stopped at bitumen average [6] | No. of roots grew thoughout bitumen average (0.125% active ingredient) | No. of roots grew thoughout bitumen (3 replicates shown) [7] | No. of roots grew thoughout bitumen (3 replicates shown) [8] | No. of roots grew thoughout bitumen (3 replicates shown) [9] | No. of roots grew into bitumen average [10] | No. of roots stopped at bitumen average [10] | No. of roots grew thoughout bitumen average (0.25% active ingredient) | No. of roots grew thoughout bitumen (3 replicates shown) [11] | No. of roots grew thoughout bitumen (3 replicates shown) [12] | No. of roots grew thoughout bitumen (3 replicates shown) [13] | No. of roots grew into bitumen average [14] | No. of roots stopped at bitumen average [14] | further results
CCCCC(CC)COC(=O)[C@@H](C)Oc1ccc(Cl)cc1C (stereo partly drawn) [Herbitect, (R)-2-(4-chlorine-o-tolyloxy)propionic acid ethyl-hexylester] |  |  |  |  |  |  |  |  |  |  |  |  |  |  |  |  |  |  |  |  | No. of emerged plants average [1]: 33.0; No. of roots grew into bitumen average [1]: 46.7; No. of roots stopped at bitumen average [1]: approx. >50; Plant height average [1]: 34.0 cm; No. of roots grew thoughout bitumen average (0.38% active ingredient): 0; No. of roots grew thoughout bitumen (3 replicates shown) (0.38% active ingredient, replicate 1): 0; No. of roots grew thoughout bitumen (3 replicates shown) (0.38% active ingredient, replicate 2): 0; No. of roots grew thoughout bitumen (3 replicates shown) (0.38% active ingredient, replicate 3): 0; Penetration of upper side of bitumen compared to the untreated bitumen (at 0.38%): penetrated to less extent; Root penetration throughout bitumen (standard product, 0.38%): without any root penetration
CCN(CC)C(=O)C(C)Oc1cccc2ccccc12 (centres unmarked) [Napropamide, N,N-Diethyl-2-(1-naphthyloxy)propanamide] | approx. >50 | approx. >50 | 1.3 | 1 | 1 | 2 | approx. >50 | approx. >50 | 0.7 | 0 | 2 | 0 | 40.0 | approx. >50 | 0.3 | 0 | 0 | 1 | 30.3 | approx. >50 | No. of roots grew thoughout bitumen average (0.5% active ingredient): 0.3; No. of roots grew thoughout bitumen (3 replicates shown) [15]: 1; No. of roots grew thoughout bitumen (3 replicates shown) [16]: 0; No. of roots grew thoughout bitumen (3 replicates shown) [17]: 0; Penetration of upper side of bitumen compared to the untreated bitumen (at 0.5% and 0.25%, respectively): penetrated to less extent; Root elongation through bitumen (at 0.5% and 0.25%, exception in a replicate showing one root penetration): stopped completely; Harm to the remaining plant parts (in vivo): not harmful; Effectiveness to prevent root penetration of bitumen membranes (overall conclusion of the study): highly effective
CCCN(CCC)c1c([N+](=O)[O-])cc(C(F)(F)F)c(N)c1[N+](=O)[O-] [Prodiamine, 2,4-dinitro-N3,N3-dipropyl-6-(trifluoromethyl)-1,3-benzenediamine] | approx. >50 | approx. >50 | 20.3 | 27 | 16 | 18 | approx. >50 | approx. >50 | 12.0 | 12 | 18 | 6 | approx. >50 | approx. >50 | 6.7 | 9 | 6 | 5 | approx. >50 | approx. >50 | No. of emerged plants average [2]: 33.7; Plant height average [2]: 33.7 cm; No. of emerged plants average [6]: 34.7; Plant height average [6]: 32.3 cm; No. of emerged plants average [10]: 34.3; Plant height average [10]: 31.0 cm; No. of emerged plants average [14]: 34.3; Plant height average [14]: 34.0 cm; No. of roots grew thoughout bitumen average (0.5% active ingredient): 2.7; No. of roots grew thoughout bitumen (3 replicates shown) [15]: 1; No. of roots grew thoughout bitumen (3 replicates shown) [16]: 3; No. of roots grew thoughout bitumen (3 replicates shown) [17]: 4; Effectiveness to restrict root growth throughout bitumen (compared to Napropamide and the standard product HERBITECT): slightly less effective
